# Assays:
# S. aureus ATCC 29213 [1] = assay: Membrane permeability, SYTO-9/propidium iodide fluorescence; assay type: cell-based; conditions: stationary-phase cells, 30 min
# Experimental: For membrane permeability assays, bacteria were prepared identically as described above for the membrane depolarization assay with the exception that SYTO-9 and propidium iodide (Invitrogen Corporation) were added at 5 μM and 30 μM, respectively. Experiments were repeated three times and produced similar results; results from one assay are presented.
# S. aureus ATCC 29213 [2] = assay: Short duration (2 h) time-kill in membrane assay buffer; assay type: cell-based
# Experimental: Short duration (2 h) time-kill studies were performed in membrane assay buffer (see below) to characterize the killing of S. aureus ATCC 29213 under conditions used in the membrane depolarization and permeability assays. Exponential- and stationary-phase S. aureus ATCC 29213 cells were diluted to an OD600=0.005 (approx 10^6 CFU/mL) in membrane assay buffer (10 mM HEPES-C1, pH 7.5, 50 μg/mL CaCl2) with or without 5 mM glucose, respectively. Experiments were initiated by the addition of antimicrobial agents at the indicated concentrations and bacteria were enumerated by serial-dilution plating.
# [3] = system: stationary-phase MRSA ATCC 43300; assay: Ultrastructure by transmission electron microscopy of thin sections; assay type: cell-based, S. aureus; conditions: 3 hours in nutrient-depleted CAMHB; 1 μg/mL oritavancin, 16 μg/mL vancomycin
# Experimental: Bacteria were fixed in 2.5% glutaraldehyde to cross-link proteins and help preserve morphological structure. Prior to embedding, the samples were treated with fresh 2.5% (vol/vol) glutaraldehyde in HEPES buffer (pH, 6.8) for 2 hours. The samples were then post-fixed in 2.0% (wt/vol) osmium tetroxide, followed by en bloc-staining with 2.0% (wt/vol) uranyl acetate, as a heavy-metal stain, to add contrast to the cells. The cells were then dehydrated through a series of ethanol washes then embedded in LR White resin. Once polymerized by curing, each culture sample was thin sectioned and stained by uranyl acetate and lead citrate so as to view the internal cellular constituents and the juxtaposition of cell envelope layers such as the plasma membrane and cell wall. Transmission electron microscopy was used to view the thin sections using a Philips CM10 under standard operating conditions at 100 kV.
# [4] = system: S. aureus strains (MSSA ATCC 29213, MRSA ATCC 33591, VRSA VRS5); assay: MBEC system in vitro biofilm, statements over all three strains; assay type: cell-based; conditions: 24-hour biofilm
# Experimental: The commercially-available MBEC™ system (Innovotech; Edmonton, AB, Canada) was used following the manufacturer's protocol (17) to establish in vitro biofilms of S. aureus and to determine the minimal biofilm eradication concentration (MBEC) of oritavancin and comparator antimicrobial agents. The MBEC represents the concentration of antimicrobial agent required to sterilize the biofilm after 24 hours of exposure. The MBEC™ system also allows for the determination of the minimal inhibitory concentration (MIC) of the test agent against planktonic cells under the conditions of the biofilm assay.
# 150 μL of bacterial inocula at 10^7 CFU/mL in tryptic soy broth was aliquoted into each well of an MBEC plate. Biofilms were established for 24 hours in a rotary incubator at 37° C. and 150 rpm. For experiments involving 72-hour biofilms, peg lids were transferred each day to 96-well plates containing 150 μL/well of fresh tryptic soy broth and incubated another 24 hours. […] The recovery plates were sonicated for 5 minutes in an ultrasonic sonicating bath (VWR Aquasonic model 550D) at the maximum setting then incubated for 24 hours and the MBECs recorded. MBECs were determined from at least three independent experiments; results represent the ranges of MBECs obtained. […]
# [5] = system: S. epidermidis ATCC 35984; assay: MBEC plate biofilm eradication, agents in combination; assay type: cell-based
# Description: The following strains were used for in vitro biofilm studies: vancomycin (VAN)-susceptible Enterococcus faecalis ATCC 29212 (VSE), VAN-resistant E. faecalis ATCC 51299 (VanB VRE), E. faecium ATCC 51559 (VanA VRE), S. epidermidis ATCC 12228 and the slime-producing strain S. epidermidis ATCC 35984. Biofilms were established in MBEC™ Physiology & Genetics Assay plates (Innovotech; Edmonton, Canada).
# [6] = system: Staphylococcus epidermidis ATCC 35984; assay: Prevention of in vitro biofilm formation on coated silicone tubing; assay type: cell-based; conditions: silicone tubing incubated overnight in 20 mg/ml solution; inoculum 10^5 or 10^7 CFU/ml
# Experimental: Silicone tubing (0.040″ inner-diameter by 0.085″ outer-diameter by 0.023″ wall thickness; VWR International) was cut into 1 cm lengths then cut longitudinally in half. Cut tubing pieces were sterilized overnight in 99% ethanol. Tubing pieces were rinsed in 2 ml of sterile water then incubated overnight at room temperature in 20 mg/ml of either oritavancin or chloroeremomycin solution in water. Control tubing pieces were incubated in water as described. The following day, tubing pieces were rinsed in 2 ml of water then incubated with Staphylococcus epidermis ATCC 35984 at an inoculum density of either 10^5 CFU/ml or 10^7 CFU/ml in tryptic soy broth at 37° C. with rotation at 150 rpm in a rotational incubator. Tubing pieces were rinsed in 2 ml of sterile physiologic saline and bacteria in the biofilm formed on the silicone tubing were recovered by sonicating the tubing pieces in 1 ml of sterile physiologic saline in a sonicating water bath (VWR Aquasonic model 550D). Recovered bacteria were enumerated by serial dilution plating.
# [7] = humans, cited from earlier work
# [8] = standard dose (oritavancin 200 mg)
smiles,measurement,setting,value
"CN[C@H](CC(C)C)C(=O)N[C@H]1C(=O)N[C@@H](CC(N)=O)C(=O)N[C@H]2C(=O)N[C@H]3C(=O)N[C@H](C(=O)N[C@H](C(=O)O)c4cc(O)cc(O)c4-c4cc3ccc4O)[C@H](O[C@H]3C[C@](C)(N)[C@@H](O)[C@H](C)O3)c3ccc(c(Cl)c3)Oc3cc2cc(c3O[C@@H]2O[C@H](CO)[C@@H](O)[C@H](O)[C@H]2O[C@H]2C[C@](C)(NCc3ccc(-c4ccc(Cl)cc4)cc3)[C@@H](O)[C@H](C)O2)Oc2ccc(cc2Cl)[C@H]1O [Oritavancin, N-(4-(4-chlorophenyl)benzyl)A82846B]",membrane permeability (SYTO-9 fluorescence),S. aureus ATCC 29213 [1],increased membrane permeability
same,reduction in CFU,"S. aureus ATCC 29213 [2]; exponential-phase cells, within 5 minutes, 16 μg/mL",4 log
same,reduction in CFU,"S. aureus ATCC 29213 [2]; stationary-phase cells, within the 2-hour time period, oritavancin at fCmax 800, daptomycin at fCmax",approximately 1 log
same,septal mid-line staining,[3],conspicuously absent
same,MBEC,[4]; all three S. aureus strains,2 to 8 µg/mL
same,MBEC relative to respective planktonic MIC,[4]; in each experiment,within one doubling dilution
same,MBEC in combination,[5]; combination of ORI and MOX required for sterilization,4 mg/L
same,MBEC in combination,[5]; combination of ORI and RFB required for sterilization,4 mg/L
same,activity on a coated surface against biofilm formation,[6],significant activity
same,predicted fCmax 800 in plasma,[7]; single 800 mg dose,16 µg/mL
same,estimated fCmax in plasma,[7]; [8],4 µg/mL
same,estimated free trough concentration in plasma,[7]; [8],0.5 µg/mL

# — patent US10201587B2, “Methods of inhibiting and treating biofilms using glycopeptide antibiotics” (MELINTA THERAPEUTICS, INC., priority 2008, dated 2019)
